Measurements as given in patent EP4740965A1, “PHARMACEUTICAL COMPOSITION OF COMPOUND FOR INHIBITING AND DEGRADING IRAK4, AND USE THEREOF IN MEDICINE” (Xizang Haisco Pharmaceutical Co., Ltd., priority 2023, dated 2025).

Legend:
[1] = biological target: T1, IRAK4 (Homo sapiens, UniProt Q9NWZ3); assay: IRAK4 degradation activity in hPBMC cells (24 hours), automated western blot; type: cell-based; settings: IRAK4 protein degradation in hPBMC cells
T1 construct: endogenous in cells; host or cells: human peripheral blood mononuclear cells (hPBMC) from healthy volunteers
T1 sequence (Q9NWZ3 1-460): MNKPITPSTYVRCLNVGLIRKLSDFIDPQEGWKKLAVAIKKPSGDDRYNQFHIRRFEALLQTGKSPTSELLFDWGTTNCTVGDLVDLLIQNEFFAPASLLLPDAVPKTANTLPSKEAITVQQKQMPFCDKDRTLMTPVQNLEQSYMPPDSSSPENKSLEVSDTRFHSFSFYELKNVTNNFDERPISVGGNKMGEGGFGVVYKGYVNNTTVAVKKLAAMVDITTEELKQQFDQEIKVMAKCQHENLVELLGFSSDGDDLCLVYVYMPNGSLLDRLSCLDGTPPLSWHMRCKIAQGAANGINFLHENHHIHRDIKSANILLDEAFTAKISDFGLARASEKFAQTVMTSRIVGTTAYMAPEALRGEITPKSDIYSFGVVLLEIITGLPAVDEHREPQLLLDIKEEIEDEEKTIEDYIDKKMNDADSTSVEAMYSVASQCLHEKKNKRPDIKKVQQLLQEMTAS
Procedure: Test example 1: Study on IRAK4 degradation activity in hPBMC cells (24 hours)
hPBMC cells are human peripheral blood mononuclear cells. Peripheral venous blood was taken from healthy volunteers, and hPBMCs were isolated using Ficoll density gradient centrifugation (Ficoll-PaqueTM PLUS 1.077, GE, Cat. 17-1140-02). Culture conditions: RPMI-1640 + 10% FBS + 1% penicillin-streptomycin solution. The cells were cultured in an incubator at 37°C and 5% CO2. The cells were plated in a 24-well plate at 1 × 10^6 cells/well. After plating, compounds at different concentrations were added, and the cells were cultured in an incubator at 37°C and 5% CO2 for 24 hours. After the culture was completed, the cells were collected, and RIPA lysis buffer (beyotime, Cat. P0013B) was added. […] The protein sample of the supernatant was collected, the protein was quantified using a BCA kit (Beyotime, Cat. P0009), and then the protein was diluted to 1 mg/mL. The expression of IRAK4 (CST, Cat. 4363S) and the internal reference cofilin (CST, Cat. 5175S) were detected using a fully automated western blot quantitative analyser (Proteinsimple). The expression level of IRAK4 relative to the internal reference was calculated using compass software. […] An IRAK4 degradation-drug concentration curve was fit using Graphpad Prism 8 software, and the DC50 was calculated. […]

[2] = Pharmacokinetic test in mice; type: in vivo, ICR mice; settings: mouse, po; plasma of mice, i.g. (10 mg/kg)
Procedure: Test example 2: Pharmacokinetic test in mice
Experimental animals: Male ICR mice, about 25 g, 6 mice/compound, purchased from Chengdu Ddossy Experimental Animals Co., Ltd.
Test design: On the day of the experiment, 6 ICR mice were randomly grouped according to their body weights. The animals were fasted with water available for 12 to 14 h one day before the administration, and were fed 4 h after the administration. Table 2.1 Administration information
Before and after the administration, 0.15 mL of blood was taken from the orbit of the animals under isoflurane anaesthesia and placed in an EDTAK2 centrifuge tube. The blood was centrifuged at 5000 rpm and 4°C for 10 min to collect plasma. The blood collection time points for the intravenous administration group and intragastric administration group were 0 min, 5 min, 15 min, 30 min, 1 h, 2 h, 4 h, 7 h and 24 h. Before analysis and detection, all samples were stored at - 60°C. The samples were analysed quantitatively by LC-MS/MS. Table 2.2 Pharmacokinetic parameters of compounds of the present invention in plasma of mice

[3] = biological target: T2, hERG potassium ion channel (Homo sapiens, UniProt Q12809); assay: Effect on hERG potassium ion channel, manual whole cell patch-clamp in CHO cells; type: cell-based; settings: hamster, inhibitory effect on hERG potassium channel current
T2 construct: expressed in transfected cells
Text: Test example 3. Test of effect on hERG potassium ion channel
Experimental platform: electrophysiological manual patch-clamp system
Cell line: Chinese hamster ovary (CHO) cell line stably expressing hERG potassium ion channel
Experimental method: In CHO (Chinese Hamster Ovary) cells stably expressing hERG potassium channel, whole cell patch-clamp technique was used to record hERG potassium channel current at room temperature. The glass microelectrode was made of a glass electrode blank (BF150-86-10, Sutter) by a puller. The tip resistance after filling the liquid in the electrode was about 2-5 MΩ. The glass microelectrode can be connected to the patch-clamp amplifier by inserting the glass microelectrode into an amplifier probe. The clamping voltage and data recording were controlled and recorded by the pClamp 10 software through a computer. The sampling frequency was 10 kHz, and the filtering frequency was 2 kHz. […]
Compound IC50 was calculated using GraphPad Prism 5 software by fitting according to the following equation: Y = Bottom + (Top−Bottom)/(1+10^(∧)((LogIC50−X)*HillSlope)) [formula] where X represents the Log value of the tested concentration of the test sample, Y represents the inhibition percentage at the corresponding concentration, and Bottom and Top represent the minimum and maximum inhibition percentage, respectively. […]

T2 sequence (Q12809 whole entry): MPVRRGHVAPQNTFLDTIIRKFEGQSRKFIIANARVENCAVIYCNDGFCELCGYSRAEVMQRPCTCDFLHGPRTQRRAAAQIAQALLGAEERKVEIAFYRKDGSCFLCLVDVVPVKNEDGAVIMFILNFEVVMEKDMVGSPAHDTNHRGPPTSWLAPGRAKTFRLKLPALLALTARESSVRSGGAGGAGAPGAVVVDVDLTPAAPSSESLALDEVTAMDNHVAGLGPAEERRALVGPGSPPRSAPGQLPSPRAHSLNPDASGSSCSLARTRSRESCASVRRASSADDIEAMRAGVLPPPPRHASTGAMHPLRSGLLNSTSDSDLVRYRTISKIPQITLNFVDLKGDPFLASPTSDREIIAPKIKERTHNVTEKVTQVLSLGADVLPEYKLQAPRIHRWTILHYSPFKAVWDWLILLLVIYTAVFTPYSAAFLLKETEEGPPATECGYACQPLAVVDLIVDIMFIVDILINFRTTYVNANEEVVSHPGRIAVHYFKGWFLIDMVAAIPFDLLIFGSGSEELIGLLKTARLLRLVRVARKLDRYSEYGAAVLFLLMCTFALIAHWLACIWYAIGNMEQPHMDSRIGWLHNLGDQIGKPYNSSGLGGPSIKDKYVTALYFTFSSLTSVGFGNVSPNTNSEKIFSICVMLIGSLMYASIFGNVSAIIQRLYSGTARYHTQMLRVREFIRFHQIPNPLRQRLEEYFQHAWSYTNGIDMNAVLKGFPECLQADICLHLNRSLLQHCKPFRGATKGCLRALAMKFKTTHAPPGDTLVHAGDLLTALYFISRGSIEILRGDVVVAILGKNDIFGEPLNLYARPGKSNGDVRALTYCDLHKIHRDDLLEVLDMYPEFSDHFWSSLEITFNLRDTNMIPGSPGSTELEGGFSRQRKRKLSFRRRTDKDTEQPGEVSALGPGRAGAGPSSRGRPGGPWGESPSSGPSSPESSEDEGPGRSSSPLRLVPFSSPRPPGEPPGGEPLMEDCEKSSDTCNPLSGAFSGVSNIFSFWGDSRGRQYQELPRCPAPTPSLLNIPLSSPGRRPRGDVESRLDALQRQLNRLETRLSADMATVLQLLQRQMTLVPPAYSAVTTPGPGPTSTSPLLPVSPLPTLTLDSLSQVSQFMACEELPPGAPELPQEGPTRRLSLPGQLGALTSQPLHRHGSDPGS

SMILES	DC50 [1] [µM]	AUC(0-t) at 24 h [2] [µg·h/mL]	IC50 [3] [µM]
Cn1nc(C2CCC(=O)NC2=O)c2cccc(C#CCO[C@@H]3CCN(C[C@H]4CC[C@H](n5cc(NC(=O)c6cnn7ccc(N8CCO[C@H](CO)C8)nc67)c(C(F)F)n5)CC4)C[C@@H]3F)c21 (single isomer, unassigned) [Chiral isomer 2 of compound 20]	< 0.02	–	–
Cn1c(=O)n(C2CCC(=O)NC2=O)c2cccc(C#CCOC3CCN(C[C@H]4CC[C@H](n5cc(NC(=O)c6cnn7ccc(N8C[C@H]9C[C@@H]8CO9)nc67)c(C(F)F)n5)CC4)CC3)c21 (stereo partly shown) [Control compound 1]	–	2.32 ± 0.146	–
Cn1nc(C2CCC(=O)NC2=O)c2cccc(C#CCO[C@@H]3CCN(C[C@H]4CC[C@H](n5cc(NC(=O)c6cnn7ccc(N8CCO[C@H](CO)C8)nc67)c(C(F)F)n5)CC4)C[C@@H]3F)c21 (single isomer, unassigned) [Chiral isomer 1 of compound 20]	< 0.02	–	> 40
